Measurements reported in US20140309192A1, “MODULATORS OF THE G PROTEIN-COUPLED MAS RECEPTOR AND THE TREATMENT OF DISORDERS RELATED THERETO” (ARENA PHARMACEUTICALS, INC., priority 2011, published 2014).
Entries after “also recorded” stand apart in the source; their conditions may differ.

Assays:
[1] = system: isolated perfused rat hearts; test: Ex vivo coronary flow, Langendorff perfused isolated rat hearts; details: for decrease in coronary flow induced by AR234960 (1 μM) after pretreatment: pretreatment 10 min: AR244555 5 μM or U-73122 0.5 μM
Protocol: Coronary flow was measured in male Mas^−/− and Mas^+/+ mice, and in male Sprague-Dawley rats using Langendorff perfused isolated hearts. Freshly isolated hearts were placed on a Langendorff apparatus (Harvard Apparatus) and perfused at a constant pressure of 80 mmHg with a modified Krebs-Henseleit buffer solution (Sigma K3753) and aerated with 95% oxygen and 5% carbon dioxide, pH 7.35-7.4. The temperature was maintained at 37° C. by surrounding the heart with a water-heated glassware chamber. Coronary flow was measured using a flow measurement system (Harvard Apparatus) which included the transit time flow meter and a flow probe built into an adaptor block located at the perfusate inflow port. Data were recorded continuously using an ISOHEART data acquisition system (Harvard Apparatus). After a 20-min equilibration period, Mas compounds were added to the perfusion buffer reservoir at the desired concentration (agonist AR234960 at 1 μM, or inverse agonist AR244555 at 5 μM) and coronary flow was recorded for 10 min
To determine the role of the Mas-Gq-PLC pathway in regulating coronary flow, the Mas inverse agonist AR244555 (5 μM) or the PLC inhibitor U-73122 (0.5 μM) was added to the perfusion buffer for 10 min and then the agonist AR234960 (1 μM) was added to the perfusion buffer. Coronary flow was recorded for another 10 min Changes in coronary flow induced by AR234960 were calculated as percentage of the coronary flow at 10 min following AR234960 treatment, relative to the coronary flow measured immediately prior to addition of AR234960. This protocol allowed for measurement of agonist mediated vasoconstrictor activity, and accounted for changes in baseline coronary flow due to inverse agonist treatment alone.
To determine whether Mas agonist-induced changes in coronary flow were endothelium-dependent, the responses in Langendorff perfused hearts were measured after chemical removal of endothelium with sodium deoxycholate. After a 20-min equilibration period, sodium deoxycholate was added to the perfusion buffer at 0.2 mg/mL for 3 min and then washed out for 10 min Mas compounds were added and coronary flow was recorded for 10 min Adenosine (1 μM), a coronary vasodilator that targets the endothelium, was used as a control to verify effective removal of endothelium.

rat Mas receptor = target: T1, rat Mas receptor (Rattus norvegicus, UniProt P12526); test: HTRF IP1 assay, HEK293 cells expressing rat Mas receptor; type: cell-based
T1 construct: expressed in transfected cells; host or cells: HEK293 (ATCC CRL-1573)
T1 sequence (P12526 1-324): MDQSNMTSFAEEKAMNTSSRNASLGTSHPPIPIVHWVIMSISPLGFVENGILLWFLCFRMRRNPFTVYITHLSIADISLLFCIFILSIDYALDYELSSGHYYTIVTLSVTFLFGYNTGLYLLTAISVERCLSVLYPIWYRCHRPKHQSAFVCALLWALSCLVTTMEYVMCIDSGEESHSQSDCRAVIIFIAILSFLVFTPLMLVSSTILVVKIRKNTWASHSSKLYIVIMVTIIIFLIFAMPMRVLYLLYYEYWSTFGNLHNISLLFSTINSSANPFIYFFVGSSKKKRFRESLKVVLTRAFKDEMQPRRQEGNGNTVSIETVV
Excerpt: (§1) Human and rat Mas receptors were either transiently or stably expressed in HEK293 cells. For transient transfections, human or rat Mas in pHM6 vector were transfected into HEK293 cells using Lipofectamine® (Invitrogen #18324-012). HEK293 cells transfected with empty pHM6 vector were used as a control. For generation of stable cell lines, cDNA expression plasmids encoding human or rat Mas genes and the neo^r gene were transfected into HEK293 cells (ATCC# CRL-1573) using Lipofectamine® (Invitrogen) according to the manufacturer's instructions. Stable receptor expressing pools were then generated over 3 weeks by standard techniques in the presence of 500 μg/mL Geneticin® (Gibco). Individual receptor stable pools were dilution cloned using standard techniques and clones were comparatively evaluated in inositol phosphate accumulation assays. Preferred clones were banked and cultured as needed. HEK293 cells were used as controls. The 384 well IP-One HTRF® Assay (Cisbio #62P1APEJ) was performed as described by the manufacturer's protocol. Cells were plated in at 100,000 cells per well in 15 μL DMEM (Gibco #11960) and incubated in a CO2 incubator at 37° C. for 2 h. Five μL of compounds diluted in 2× stimulation buffer plus 0.4% BSA (Sigma (#A3059) were added to each well and serial diluted IP1 standards (Cisbio #62IP1CDA) were also added to corresponding wells at this step. After the cells were incubated for 4 h in a CO2 incubator at 37° C., d2-labeled IP1 and cryptate-labeled anti-IP1 monoclonal antibody diluted in lysis buffer were added sequentially in 10 μL per well and the assay plates were kept in the dark at room temperature overnight. Ratiometric measurements of fluorescence emission at 665 nm and 620 nm were obtained using a Pherastar fluorometer (BMG Labtech). IP1 levels in each well were calculated according to the standard curves on each plate. IC50 values were obtained by fitting data to a nonlinear curve-fitting program (GraphPad Software, Inc., La Jolla Calif.).

Male Sprague-Dawley rats = test: Coronary artery ligation model, LV area at risk and infarct size (Example 5.6); type: in vivo, rat; details: 10 mg/kg i.v. bolus 10 min before ligation or 3 min before reperfusion; 30 min ischemia, 2 h reperfusion
human Mas receptor = target: T2, human Mas receptor (Homo sapiens, UniProt P04201); test: HTRF IP1 assay, HEK293 cells expressing human Mas receptor; type: cell-based
T2 construct: expressed in transfected cells; host or cells: HEK293 (ATCC CRL-1573)
T2 sequence (P04201 1-325): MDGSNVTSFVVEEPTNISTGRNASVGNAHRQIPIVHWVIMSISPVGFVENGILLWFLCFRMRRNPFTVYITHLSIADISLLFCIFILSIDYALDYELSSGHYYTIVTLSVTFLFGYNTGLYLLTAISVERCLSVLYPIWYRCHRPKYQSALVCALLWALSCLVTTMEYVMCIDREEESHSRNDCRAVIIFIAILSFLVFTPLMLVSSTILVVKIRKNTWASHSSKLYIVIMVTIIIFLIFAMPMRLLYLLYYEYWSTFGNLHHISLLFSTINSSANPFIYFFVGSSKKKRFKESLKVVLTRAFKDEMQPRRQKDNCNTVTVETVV
Excerpt: as §1

control HEK293 cells = test: HTRF IP1 assay in control HEK293 cells; type: cell-based; details: IP assay
Excerpt: Human and rat Mas receptors were either transiently or stably expressed in HEK293 cells. For transient transfections, human or rat Mas in pHM6 vector were transfected into HEK293 cells using Lipofectamine® (Invitrogen #18324-012). HEK293 cells transfected with empty pHM6 vector were used as a control. For generation of stable cell lines, cDNA expression plasmids encoding human or rat Mas genes and the neo^r gene were transfected into HEK293 cells (ATCC# CRL-1573) using Lipofectamine® (Invitrogen) according to the manufacturer's instructions. Stable receptor expressing pools were then generated over 3 weeks by standard techniques in the presence of 500 μg/mL Geneticin® (Gibco). Individual receptor stable pools were dilution cloned using standard techniques and clones were comparatively evaluated in inositol phosphate accumulation assays. Preferred clones were banked and cultured as needed. HEK293 cells were used as controls. The 384 well IP-One HTRF® Assay (Cisbio #62P1APEJ) was performed as described by the manufacturer's protocol. Cells were plated in at 100,000 cells per well in 15 μL DMEM (Gibco #11960) and incubated in a CO2 incubator at 37° C. for 2 h. […] IP1 levels in each well were calculated according to the standard curves on each plate. […]

[2] = system: isolated perfused rat hearts; test: Global ischemia-reperfusion in Langendorff perfused rat hearts (coronary flow, arrhythmias)
Protocol: For ischemia-reperfusion experiments, Langendorff perfused rat hearts were equilibrated for 20 min and then baseline coronary flow was recorded for 10 min Thereafter, all hearts were subjected to 30 min of global ischemia by stopping perfusate flow, followed by 30 min of reperfusion with either vehicle (0.01% DMSO), Mas agonist AR234960 (1 μM) or Mas inverse agonist AR244555 (5 μM) added to the perfusion buffer. Electrocardiography was also continuously recorded during the observation period through electrodes attached directly to the surface of the ventricles to detect cardiac arrhythmias during reperfusion.

Male Sprague Dawley rats = test: Carrageenan-induced inflammatory paw swelling model; type: in vivo, rat; details: i.p. 30 minutes prior to λ-carrageenan; AR305352 1, 3 and 10 mg/kg; dexamethasone 2 mg/kg; 1, 2, 3, 6 and 24 hours
Protocol: In a blinded and randomized fashion, rats were intraperitoneally dosed with a Mas receptor inverse agonist (AR305352, N-(4-chloro-2-(4-(3,3,3-trifluoropropyl)piperazin-1-yl)phenyl)-2,6-difluorobenzamide, see Zhang, T., et. al., Am J Physiol Heart Circ Physiol 302:H299-H311, (2012)) at 1, 3 and 10 mg/kg, 20% HPCD or 2 mg/kg of dexamethasone, 30 minutes prior to injection of 100 μl of saline or 100 μg of λ-carrageenan into the left or right foot pad of anesthetized animals. The difference in footpad width was measured using a caliper at 1, 2, 3, 6 and 24 hours post-injection.

Mas receptor = details: Dong, et al., Cell 106:619-632 (2001); cited from earlier work

**Q.** With `C=CCCN1CCC2(CC1)CN(C(=O)c1c(F)cccc1F)c1ccc(Cl)cc12` [AR244555, 1′-(but-3-enyl)-1,2-dihydro-5-chloro-1-(2,6-difluoro-benzoyl)-spiro[3H-indole-3,4′-piperidine]] as the molecule, how does the “coronary flow in isolated perfused rat hearts” value ([1]; AR234960 1 μM, AR244555 5 μM, 10 min) read?
**A.** modest but significant increase; also recorded: significantly increased

**Q.** What about the “decrease in coronary flow induced by AR234960 (1 μM) after pretreatment” value [1] of the same molecule?
**A.** prevented the decrease

**Q.** And the IC50 (rat Mas receptor; IP assay, HEK293 cells stably expressing rat Mas, 4 h, means ± SEM, read-out: Rat IC50)?
**A.** 348 ± 67 nM

**Q.** What about the “ligand activity in IP assay, rat Mas” value (rat Mas receptor; Table C, line under Rat IC50) of the same molecule?
**A.** (inverse agonist)

**Q.** And the “infarct size (percentage of the area at risk) vs vehicle” value (Male Sprague-Dawley rats)?
**A.** reduced infarct size by about half; also recorded: cardioprotective

**Q.** What about the IC50 (human Mas receptor; IP assay, HEK293 cells stably expressing human Mas, 4 h, means ± SEM, read-out: Human IC50) of the same molecule?
**A.** 186 ± 11 nM

**Q.** And the “ligand activity in IP assay, human Mas” value (human Mas receptor; Table C, line under Human IC50)?
**A.** (inverse agonist)

**Q.** And the “effects in control HEK293 cells” value (control HEK293 cells)?
**A.** There were detected effects

**Q.** And the arrhythmias during reperfusion ([2]; 5 μM, six hearts)?
**A.** no arrhythmias were observed

**Q.** What about the “coronary flow during reperfusion compared to vehicle treated hearts” value ([2]; 30 min global ischemia, 30 min reperfusion, AR234960 1 μM, AR244555 5 μM in perfusate during reperfusion) of the same molecule?
**A.** significantly elevated coronary flow

**Q.** For `O=C(Nc1ccc(Cl)cc1N1CCN(CCC(F)(F)F)CC1)c1c(F)cccc1F` [AR305352, N-(4-chloro-2-(4-(3,3,3-trifluoropropyl)piperazin-1-yl)phenyl)-2,6-difluorobenzamide], which “foot-pad inflammation / paw swelling” value (Male Sprague Dawley rats) is on record?
**A.** suppress foot-pad inflammation in a dose-dependent manner

**Q.** With `COc1ccc2c(c1)CC[C@@H]1[C@@H]2CC[C@]2(C)[C@@H](NCCCCCCN3C(=O)C=CC3=O)CC[C@@H]12` [Compound U-73122, 1-(6-((8R,9S,13S,14S,17S)-3-methoxy-13-methyl-7,8,9,11,12,13,14,15,16,17-decahydro-6H-cyclopenta[a]phenanthren-17-ylamino)hexyl)-1H-pyrrole-2,5-dione] as the molecule, how does the “decrease in coronary flow induced by AR234960 (1 μM) after pretreatment” value [1] read?
**A.** blocked the decrease; also recorded: prevented the decrease

**Q.** With `Nc1ncnc2c1ncn2[C@@H]1O[C@H](CO)[C@@H](O)[C@H]1O` [adenosine] as the molecule, how does the “compound-mediated change in coronary flow in endothelium denuded hearts” value ([1]; after sodium deoxycholate, AR234960 1 μM, adenosine 1 μM) read?
**A.** abolished

**Q.** With NPFF as the molecule, how does the EC50 (Mas receptor) read?
**A.** ~400 nM
